Source: ChEMBL document CHEMBL3045383, “Synthesis, characterization, anticancer activity, and QSAR-studies of some new tetrahydropyrimidines” (2011)

Key:
Format in all cases: functional
CAKI-1 = test: Cytotoxicity against Homo sapiens (human) CAKI-1 cells after 48 hr by SRB assay; conditions: CAKI-1, 48 h
SF-268 = test: Cytotoxicity against Homo sapiens (human) SF268 cells after 48 hr by SRB assay; conditions: SF-268, 48 h
SK-MEL-5 = test: Cytotoxicity against Homo sapiens (human) SK-MEL-5 cells after 48 hr by SRB assay; conditions: SK-MEL-5, 48 h
COLO 205 = test: Cytotoxicity against Homo sapiens (human) COLO205 cells after 48 hr by SRB assay; conditions: COLO 205, 48 h
IGROV-1 = test: Cytotoxicity against Homo sapiens (human) IGROV1 cells after 48 hr by SRB assay; conditions: IGROV-1, 48 h
PC-3 = test: Cytotoxicity against Homo sapiens (human) PC3 cells after 48 hr by SRB assay; conditions: PC-3, 48 h
NCI/ADR-RES = test: Cytotoxicity against Homo sapiens (human) NCI/ADR-RES cells after 48 hr by SRB assay
HOP-92 = test: Cytotoxicity against Homo sapiens (human) HOP92 cells after 48 hr by SRB assay; conditions: HOP-92, 48 h
HL-60(TB) = test: Cytotoxicity against Homo sapiens (human) HL-60(TB) cells after 48 hr by SRB assay; conditions: HL-60, 48 h

Row | SMILES | GI50 (CAKI-1) [µM] | GI50 (SF-268) [µM] | GI50 (SK-MEL-5) [µM] | GI50 (COLO 205) [µM] | GI50 (IGROV-1) [µM] | GI50 (PC-3) [µM] | GI50 (NCI/ADR-RES) [µM] | GI50 (HOP-92) [µM] | GI50 (HL-60(TB)) [µM]
1 | CC1=C(C(=O)Nc2ccc(Cl)c(Cl)c2)C(c2cccc(Oc3ccccc3)c2)NC(=S)N1 (stereo not drawn) | 8.51 | 6.17 | 7.94 | 9.33 | 7.76 | 9.77 | 15.5 | 13.2 | 83.2
2 | CC1=C(C(=O)Nc2ccc(Cl)c(Cl)c2)C(c2cccc(Cl)c2)NC(=O)N1 (stereo not drawn) | 12.6 | 11.2 | 9.55 | 7.94 | 10.5 | 50.1 | 16.6 | 45.7 | 13.5
3 | CC1=C(C(=O)Nc2ccc(Cl)c(Cl)c2)C(c2ccccc2O)NC(=O)N1 (stereo not drawn) | 39.8 | 28.2 | 12.6 | 28.2 | 25.1 | 33.9 | 17.8 | 50.1 | 50.1
4 | CC1=C(C(=O)Nc2ccc(F)c(Cl)c2)C(c2cccc(Oc3ccccc3)c2)NC(=O)N1 (stereo not drawn) | 10 | 8.51 | 7.59 | 6.31 | 7.94 | 22.4 | 16.2 | 40.7 | 13.8
5 | COc1cccc(C2NC(=S)NC(C)=C2C(=O)Nc2ccc(Cl)c(Cl)c2)c1 (stereo not drawn) | 17.8 | 12.6 | 9.55 | 9.33 | 15.8 | 14.5 | 16.6 | 12.6 | 49
6 | CC1=C(C(=O)Nc2ccc(F)c(Cl)c2)C(c2cccc(O)c2)NC(=S)N1 (stereo not drawn) | 50.1 | 17.8 | 11.2 | 22.4 | 22.9 | 25.1 | 17 | 50.1 | 25.7
7 | CC1=C(C(=O)Nc2ccc(F)c(Cl)c2)C(c2cccc(Cl)c2)NC(=S)N1 (stereo not drawn) | 39.8 | 10 | 8.32 | 4.17 | 14.1 | 25.1 | 15.8 | 32.4 | 16.2
8 | CC1=C(C(=O)Nc2ccc(Cl)c(Cl)c2)C(c2cccc(O)c2)NC(=S)N1 (stereo not drawn) | 22.4 | 15.8 | 10 | 7.08 | 19.1 | 14.1 | 15.8 | 13.5 | 11.2
9 | CC1=C(C(=O)Nc2ccc(Cl)c(Cl)c2)C(c2ccccc2Cl)NC(=S)N1 (stereo not drawn) | 17.8 | 8.91 | 10 | 7.94 | 15.8 | 20 | 15.8 | 1.2 | 15.5
10 | COc1cccc(C2NC(=S)NC(C)=C2C(=O)Nc2ccc(F)c(Cl)c2)c1 (stereo not drawn) | 49 | 18.2 | 13.2 | 26.9 | 27.5 | 23.4 | 15.5 | 50.1 | 17.4
11 | CC1=C(C(=O)Nc2ccc(F)c(Cl)c2)C(c2ccccc2Cl)NC(=S)N1 (stereo not drawn) | 31.6 | 14.8 | 12.3 | 24 | 17.8 | 20.4 | 16.6 | 50.1 | 25.7
12 | CC1=C(C(=O)Nc2ccc(F)c(Cl)c2)C(c2cccc(Oc3ccccc3)c2)NC(=S)N1 (stereo not drawn) | 12.6 | 8.91 | 8.91 | 17.8 | 10.7 | 12 | 15.5 | 20.9 | 17.4
